PubChem BioAssay AID2060898 (Molecular Pharmacology Branch, DTP, NCI, 2025)

System: 616215-338-R-J1-PDC complex spheroid viability
Test: Anticancer human tumor 616215-338-R-J1-PDC patient-derived colon adenocarcinoma cell line growth inhibition [RAS]
Conditions: for IC50: curve of first compound; for viability, T/C: stronger effect = lower value; active means viability on the fitted dose curve at most 10% of control; inactive means the rest
Procedure, shortened: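 Agents were tested in combination matrices in half-log decrements from a top concentration at or near clinical Cmax (10 microM if undetermined). Targets were multi-cell spheroids of tumour lines plus HUVEC and MSC stromal cells.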

[1] = second compound 0.00316 µM, first compound 0.0316 µM
[2] = second compound 0.00316 µM, first compound 0.1 µM
[3] = second compound 0.00316 µM, first compound 0.316 µM
[4] = second compound 0.00316 µM, first compound 1 µM
[5] = second compound 0.00316 µM, first compound 3.16 µM
[6] = second compound 0.00316 µM, first compound 10 µM
[7] = second compound 0.01 µM, first compound 0.0316 µM
[8] = second compound 0.01 µM, first compound 0.1 µM
[9] = second compound 0.01 µM, first compound 0.316 µM
[10] = second compound 0.01 µM, first compound 1 µM
[11] = second compound 0.01 µM, first compound 3.16 µM
[12] = second compound 0.01 µM, first compound 10 µM
[13] = second compound 0.0316 µM, first compound 0.0316 µM
[14] = second compound 0.0316 µM, first compound 0.1 µM
[15] = second compound 0.0316 µM, first compound 0.316 µM
[16] = second compound 0.0316 µM, first compound 1 µM
[17] = second compound 0.0316 µM, first compound 3.16 µM
[18] = second compound 0.0316 µM, first compound 10 µM
[19] = second compound 0.1 µM, first compound 0.0316 µM
[20] = second compound 0.1 µM, first compound 0.1 µM
[21] = second compound 0.1 µM, first compound 0.316 µM
[22] = second compound 0.1 µM, first compound 1 µM
[23] = second compound 0.1 µM, first compound 3.16 µM
[24] = second compound 0.1 µM, first compound 10 µM
[25] = second compound 0.316 µM, first compound 0.0316 µM
[26] = second compound 0.316 µM, first compound 0.1 µM
[27] = second compound 0.316 µM, first compound 0.316 µM
[28] = second compound 0.316 µM, first compound 1 µM
[29] = second compound 0.316 µM, first compound 3.16 µM
[30] = second compound 0.316 µM, first compound 10 µM
[31] = second compound 1 µM, first compound 0.0316 µM
[32] = second compound 1 µM, first compound 0.1 µM
[33] = second compound 1 µM, first compound 0.316 µM
[34] = second compound 1 µM, first compound 1 µM
[35] = second compound 1 µM, first compound 3.16 µM
[36] = second compound 1 µM, first compound 10 µM
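Further: spheroids exposed to agents for seven days before viability readout.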
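Wherever viability, T/C is given: 100% = DMSO vehicle control viability.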

CCC(CC)c1cc(NC2CCC(N)C2)n2nccc2n1 (stereo unspecified) + C=CC(=O)N1CCN(c2nc(OCC3CCCN3C)nc3c(F)c(-c4nc(N)cc(C)c4C(F)(F)F)c(Cl)cc23)C(C)C1
inactive: viability, T/C [1] 101% | viability, T/C [2] 97.5% | viability, T/C [3] 92.6% | viability, T/C [4] 97.8% | viability, T/C [7] 100% | viability, T/C [8] 102% | viability, T/C [9] 96.6% | viability, T/C [10] 102% | viability, T/C [13] 108% | viability, T/C [14] 100% | viability, T/C [15] 90.2% | viability, T/C [16] 105% | viability, T/C [19] 103% | viability, T/C [20] 95.2% | viability, T/C [21] 96.9% | viability, T/C [22] 104% | viability, T/C [25] 107% | viability, T/C [26] 90.1% | viability, T/C [27] 101% | viability, T/C [28] 105% | viability, T/C [31] 106% | viability, T/C [32] 106% | viability, T/C [33] 96.5% | viability, T/C [34] 114%
1.77 µM: IC50 (second compound 0.00316 µM)
1.78 µM: IC50 (second compound 0.1 µM)
1.86 µM: IC50 (second compound 1 µM)
1.8 µM: IC50 (second compound 0.01 µM) | IC50 (second compound 0.316 µM)
active: viability, T/C [5] 0.65% | viability, T/C [6] 2.31% | viability, T/C [11] 0.87% | viability, T/C [12] 2.95% | viability, T/C [17] 0.34% | viability, T/C [18] 0.25% | viability, T/C [23] 0.59% | viability, T/C [24] 0.27% | viability, T/C [29] 1.41% | viability, T/C [30] 1.72% | viability, T/C [35] 2.76% | viability, T/C [36] 2.4%
1.79 µM: IC50 (second compound 0.0316 µM)

Cc1nc(N2CCC3(CC2)COC(C)C3N)c(CO)nc1Sc1ccnc(N)c1Cl (stereo unspecified) + C=CC(=O)N1CCN(c2nc(OCC3CCCN3C)nc3c(F)c(-c4nc(N)cc(C)c4C(F)(F)F)c(Cl)cc23)C(C)C1
inactive: viability, T/C [1] 93.3% | viability, T/C [2] 101% | viability, T/C [3] 125% | viability, T/C [4] 95.6% | viability, T/C [5] 98.1% | viability, T/C [6] 84.7% | viability, T/C [7] 114% | viability, T/C [8] 111% | viability, T/C [9] 110% | viability, T/C [10] 110% | viability, T/C [11] 90.2% | viability, T/C [12] 83.7% | viability, T/C [13] 107% | viability, T/C [14] 110% | viability, T/C [15] 114% | viability, T/C [16] 99.3% | viability, T/C [17] 109% | viability, T/C [18] 80.6% | viability, T/C [19] 98.7% | viability, T/C [20] 113% | viability, T/C [21] 115% | viability, T/C [22] 119% | viability, T/C [23] 97.3% | viability, T/C [24] 83.2% | viability, T/C [25] 105% | viability, T/C [26] 99% | viability, T/C [27] 129% | viability, T/C [28] 102% | viability, T/C [29] 106% | viability, T/C [30] 73% | viability, T/C [31] 97.7% | viability, T/C [32] 110% | viability, T/C [33] 99.7% | viability, T/C [34] 109% | viability, T/C [35] 89.4% | viability, T/C [36] 75.4%
> 10 µM: IC50 (second compound 0.00316 µM) | IC50 (second compound 0.01 µM) | IC50 (second compound 0.0316 µM) | IC50 (second compound 0.1 µM) | IC50 (second compound 0.316 µM) | IC50 (second compound 1 µM)

NC1c2ccccc2OC12CCN(c1cnc3c(N4CCCc5ncccc54)n[nH]c3n1)CC2 (stereo unspecified) + C=CC(=O)N1CCN(c2nc(OCC3CCCN3C)nc3c(F)c(-c4nc(N)cc(C)c4C(F)(F)F)c(Cl)cc23)C(C)C1
> 10 µM: IC50 (second compound 0.00316 µM) | IC50 (second compound 0.01 µM) | IC50 (second compound 0.0316 µM) | IC50 (second compound 0.1 µM) | IC50 (second compound 0.316 µM) | IC50 (second compound 1 µM)
inactive: viability, T/C [1] 119% | viability, T/C [2] 114% | viability, T/C [3] 81.2% | viability, T/C [4] 79.1% | viability, T/C [5] 58.7% | viability, T/C [6] 53.5% | viability, T/C [7] 134% | viability, T/C [8] 104% | viability, T/C [9] 95.4% | viability, T/C [10] 80.5% | viability, T/C [11] 83% | viability, T/C [12] 64.2% | viability, T/C [13] 121% | viability, T/C [14] 113% | viability, T/C [15] 95.7% | viability, T/C [16] 74.9% | viability, T/C [17] 77.4% | viability, T/C [18] 60.6% | viability, T/C [19] 112% | viability, T/C [20] 110% | viability, T/C [21] 81.3% | viability, T/C [22] 93.4% | viability, T/C [23] 64.7% | viability, T/C [24] 62.1% | viability, T/C [25] 120% | viability, T/C [26] 112% | viability, T/C [27] 91.4% | viability, T/C [28] 74.3% | viability, T/C [29] 70.9% | viability, T/C [30] 52.3% | viability, T/C [31] 116% | viability, T/C [32] 101% | viability, T/C [33] 91.8% | viability, T/C [34] 83.6% | viability, T/C [35] 73% | viability, T/C [36] 62.3%
